According to article PMC12455637, “Functionalizing Nisin with a Sugar Moiety Improves Its Solubility and Results in an Altered Antibacterial Spectrum and Mode of Action” (ACS Synthetic Biology, 2025):
Values after ≈ are worked out from the molar mass of the structure shown. Ends that are not written are not given here.

Key:
[1] = test system: Staphylococcus epidermidis; settings: ref citation number not printed (Twomey et al. by title); cited from earlier work
Excerpt: Recently, we introduced the Met analog Aha at position 17 and used click chemistry to ...

B. cereus = test: Agar well diffusion assay; type: cell-based, Bacillus cereus; settings: HPLC-purified peptides
Method: (§1) An overnight culture was added at a concentration of 0.1% (v/v) to molten GM17 agar (for E. faecium and E. faecalis) or LB agar (for S. aureus and B. cereus) at 45 °C, and then 30 mL of this mixture was poured onto a plate. After the agar solidified, wells of 8 mm were created by punching in the agar and filled with 30 μL of a 1 mg/mL lantibiotic solution. If needed, lantibiotics were activated by adding 3 μL of 1 mg/mL NisP directly to the well. The quantity of nisin was determined using HPLC as previously outlined. The agar plate was then incubated at 37 °C overnight, and the zones of inhibition were measured. The presented data results from three independent experiments. Zone diameters were measured in millimeters and recorded as the area of the zone (πr ^2) minus the area of the well (πr ^2) in millimeters.

[2] = test system: Enterococcus faecium LMG16003 (VRE); type: cell-based; settings: broth microdilution, inoculum ~5 × 10^5 CFU/mL, overnight 37 °C, HPLC-purified peptides
Method: (§2) The minimal inhibitory concentration (MIC) values were assessed through broth microdilution following standard guidelines. The inoculum was adjusted to around 5 × 10^5 CFU/mL. MIC was characterized as the lowest concentration of the antimicrobial substance at which no visible growth was observed following overnight incubation at 37 °C.

[3] = test system: Staphylococcus aureus LMG15975 (MRSA); type: cell-based; settings: broth microdilution, inoculum ~5 × 10^5 CFU/mL, overnight 37 °C, HPLC-purified peptides
Method: as §2

lipid II = test: Spot-on-lawn assay of peptide-lipid II complex formation; type: cell-based, Enterococcus faecium; settings: lipid II 300 μM, 2 μL spotted at edge of inhibition zone, E. faecium lawn, overnight 37 °C
Method: To assess the interaction between the peptide and lipid II, an overnight culture of E. faecium was added to 0.8% GM17 (w/v) at 45 °C with a final concentration of 0.1% (v/v), and the mixture was then poured into 10 mL plates. The binding of the peptide to lipid II was further examined by spotting purified lipid II (300 μM, 2 μL) at the periphery of the antibiotic inhibition zone. In brief, antimicrobials were applied to the agar plate. Once the antimicrobial solution drops had dried, lipid II was spotted at the edge of the inhibition zone. After the drops had dried, the plates were incubated overnight at 37 °C.

E. faecium cells = test: Membrane potential, DiSC3(5) probe; type: cell-based, Enterococcus faecium; settings: different concentrations, 2 μM DiSC3(5), monitored 25 min, three replicates
Method: To assess the membrane potential, the membrane potential-sensitive fluorescent dye DiSC3(5) was employed. E. faecium was grown to an OD600 of 0.8, then centrifuged at 5000g for 5 min and washed twice in 10 mM HEPES with 10 mM glucose (pH 7.2). The cell density was adjusted to an OD600 of 0.2 and loaded with 2 μM DiSC3(5) dye, followed by a 20 min incubation in darkness to stabilize the probe fluorescence. Subsequently, the cell suspension was transferred to a 96-well microplate and incubated for 5 min with 100 mM KCl. Antibiotics were then introduced at a varied concentration, and the fluorescence was monitored for 25 min. The excitation and emission wavelengths on the fluorescence spectrometer were set to 622 and 670 nm, respectively. Three replicates were conducted, and a representative example is presented.

Solubility at neutral pH = type: physicochemical
Method: Highest solubility at pH 7 was obtained for nisin Z mutant M31K (7–8 mg/mL). The covalent modification of a therapeutic peptide or protein with sugar units is an established strategy to enhance drug solubility and bioavailability. The N-terminal segment of nisin contains a relatively high proportion of hydrophobic residues, while the C-terminal portion is more hydrophilic, featuring positively charged lysine and histidine side chains (Figure e). Attaching a hydrophilic sugar moiety to the C-terminal region of nisin therefore may not substantially alter its amphiphilic nature. To assess the solubility of nisin and its new variants at neutral pH, wild-type nisin or nisin(M21V)–Gal were added to a 50 mM PBS buffer solution (pH 7.2) at room temperature until precipitation occurred (Figure S7a). After equilibration, the concentration of dissolved nisin in the saturated solution was determined using high-performance liquid chromatography (HPLC).
Wild-type nisin (product code: 0305, Handary, Belgium) or nisin(M21V)–Gal was added to a 50 mM PBS buffer solution until precipitation occurred. Equilibrium was established by continuous shaking for 30 min, followed by centrifugation for 3 min at 15,000g. The concentration of the saturated nisin solution was determined using HPLC. […]

E. faecium [4] = type: cell-based, Enterococcus faecium; settings: agar well diffusion, 30 μL of 1 mg/mL
Method: 2 Production of single-Met containing nisin and nisin variants labeled with Met, Hpg or Hpg–Glc and their antibacterial activity against E. faecium strain. (a) Quantification of fully modified nisin variants labeled with Met or Hpg using HPLC as per Schmitt et al. (b) Evaluation of the antimicrobial efficacy of nisin and its variants against E. faecium through agar well diffusion assay. Each trial was repeated 3 times. The relative activity was determined by measuring inhibition zone diameters in millimeters, calculated as the area of the zone (πr ^2) minus the area of the well (πr ^2) in millimeters.
as §1

E. faecium [5] = test: Potassium ion efflux assay (PBFI probe); type: cell-based, Enterococcus faecium; settings: various peptide concentrations, up to 32 times MIC; 10 mM HEPES pH 7.2, 0.5% glucose, 10 μM PBFI
Method: To conduct the K^+ release assay, the K^+-specific fluorescent probe PBFI was utilized. E. faecium was cultured in GM17 medium until it reached an OD600 of 0.6, at which point the cells were harvested (5000g, 5 min) and washed twice with 10 mM HEPES (pH 7.2) containing 0.5% glucose. The cells were then suspended in the same buffer supplemented with 10 μM PBFI. Data analysis was carried out using a Varioskan LUX Multimode Microplate Reader (Thermo Fisher Scientific), with cell excitation at 346 nm and fluorescence emission measurement at 505 nm to establish a baseline signal before the introduction of varying concentrations of antibiotics. Nisin was utilized as the positive control in this study.

E. faecium [6] = test: Time-kill assay; type: cell-based, Enterococcus faecium
Method: The antimicrobial effectiveness of nisin, nisin(1–22), and nisin(M21V)–Gal was assessed using a method previously described by Guo et al. , In summary, an overnight culture of E. faecium was diluted 50 times in GM17 medium and cultured at 37 °C. The bacteria were grown until reaching an optical density at 600 nm (OD600) of 0.5, and then the cell concentration was adjusted to 5 × 10^5 colony-forming units per milliliter (CFU/mL). Following this, the bacteria were exposed to a 5-fold MIC of each peptide. An untreated cell suspension was used as a control. At specific time intervals, 50 μL samples were taken, and both undiluted and 10-fold serially diluted suspensions were plated on GM17 agar. The plates were then incubated overnight at 37 °C, and the resulting colonies were counted and expressed as CFU/mL. Each experiment was conducted in triplicate.

Enterococcus faecalis = test: Agar well diffusion assay; type: cell-based; settings: HPLC-purified peptides
Method: as §1

S. aureus = test: Agar well diffusion assay; type: cell-based, Staphylococcus aureus; settings: HPLC-purified peptides
Method: as §1

Compound	influence of M17 mutation on antimicrobial activity [1]	activity compared to wild-type nisin or Hpg-labeled nisin(M21V) (B. cereus)	MIC [2] [µg/mL]	MIC [3] [µg/mL]	effect of externally added purified lipid II on antimicrobial activity / lipid II binding (lipid II)	membrane depolarization (DiSC3(5) fluorescence) (E. faecium cells)	solubility thermodynamic at 30 min (Solubility at neutral pH; aqueous buffer, thermodynamic from solid, thermodynamic, solid added until precipitation, 50 mM PBS pH 7.2, room temperature, shaking 30 min, centrifugation 3 min 15,000g, HPLC at 226 nm against nisin standard curve, repeated 3 times) [µg/mL]	solubility, times higher compared to wild-type nisin (Solubility at neutral pH; neutral pH, 50 mM PBS pH 7.2, room temperature) [times]	antibacterial activity in words (E. faecium [4])	potassium ion release (PBFI fluorescence) (E. faecium [5])	bacteriostatic or bactericidal nature (E. faecium [6]; 5-fold MIC against E. faecium)	reduction in bacterial population (E. faecium [6]; 5-fold MIC, after 3 h of incubation, start 5 × 10^5 CFU/mL, triplicate)	activity compared to wild-type nisin or Hpg-labeled nisin(M21V) (Enterococcus faecalis)	activity compared to wild-type nisin or Hpg-labeled nisin(M21V) (S. aureus)
M17Q: literature nisin mutant with M17Q mutation (ITSISLCTPGCKTGALQGCNMKTATCHCSIHVSK; cysteine pairing not given here; also: lantibiotic nisin-A; UniProt P13068 24-57, looked up, variant M17Q)	enhanced effectiveness	–	–	–	–	–	–	–	–	–	–	–	–	–
C=C(NC(=O)[C@@H](NC(=O)[C@H](Cc1c[nH]cn1)NC(=O)[C@@H](NC(=O)[C@H](CO)NC(=O)[C@@H]1CS[C@@H](C)[C@H]2NC(=O)[C@H](C)NC(=O)[C@H](NC(=O)[C@H](CCCCN)NC(=O)[C@@H](NC(=O)[C@H](CC(N)=O)NC(=O)[C@@H]3CS[C@@H](C)[C@@H](NC(=O)[C@H](CCCCN)NC(=O)[C@@H]4CS[C@@H](C)[C@@H](NC(=O)[C@@H]5CSC[C@@H](NC(=O)/C(=C/C)NC(=O)[C@@H](N)[C@@H](C)CC)C(=O)N[C@@H]([C@@H](C)CC)C(=O)NC(=C)C(=O)N[C@@H](CC(C)C)C(=O)N5)C(=O)N5CCC[C@H]5C(=O)NCC(=O)N4)C(=O)NCC(=O)N[C@@H](C)C(=O)N[C@@H](CC(C)C)C(=O)N[C@@H](CCc4cn(C[C@H]5OC(O)[C@H](O)[C@@H](O)[C@H]5O)nn4)C(=O)NCC(=O)N3)C(C)C)[C@H](C)SC[C@H](NC2=O)C(=O)N[C@@H](Cc2c[nH]cn2)C(=O)N1)[C@@H](C)CC)C(C)C)C(=O)N[C@@H](CCCCN)C(=O)O (some centres unmarked) [nisin(M21V)–Gal]	–	reduced activity	3.8 (≈ 1.08 µM)	15.19 (≈ 4.33 µM)	maintained its capacity to bind to lipid II	lost the ability to induce membrane depolarization	8600 (≈ 2450 µM)	3.9	retained high potency	did not demonstrate this effect	bactericidal activity	thousand-fold	significantly lower activity	reduced activity
